How the values were obtained:
[1] = system: plaque-forming cells against the sheep red blood cells; assay: Inhibitory effect on antibody production (IgM PFC against sheep red blood cells); format: in vivo, Lewis rats; settings: 2 mg/kg
Protocol: A mechanism under which sphingomyelin inhibits the onset of EAE was studied. […] The spleen was excised from each rat on the 18th day, and a single cell suspension was aseptically prepared therefrom. The red blood cells were removed by a hemolysis method. After washing with an RPMI-1640 medium, a cell suspension was prepared at a cell density of […]. The number of plaque-forming cells against the sheep red blood cells was counted according to the method of Jerne and used as the number of IgM PFC. From the results shown in Table 11, it was confirmed that sphingomyelin has inhibitory activity against antibody production.

[2] = system: lymphocytes from human milk; assay: Test on promotion of secretory IgA production; format: cell-based; settings: 3 μg added to 3 ml Petri dish; after 7 days
Protocol: 5 ml of aseptically collected human milk was diluted twice with a 10 mM phosphate-buffered saline (PBS, pH 7.2) containing 150 mM NaCl and then layered in a test tube containing 5 ml of a separation solution (mixed solution of 33.4% Conray 400 (manufactured by Daiichi Pharmaceutical Co., Ltd.) and 9% Ficoll (manufactured by Pharmacia) at a ratio of 5:12). After centrifugation at 400×G for 30 minutes, the intermediate layer in which lymphocytes were gathered was collected with a Pasteur pipette. The lymphocytes were dispersed and washed in 10 ml of PBS and then centrifuged at 150×G for 10 minutes. This washing procedure was repeated three times. Then, 12 ml of an RPMI-1640 medium containing insulin (10 μg/ml) and transferrin (5 μg/ml) was added thereto, and the mixture was dispensed in an amount of 3 ml/Petri dish into 3 Petri dishes (A; […]

Male Wistar rats = assay: Effect of preventing drunken sickness (hangover) after ethyl alcohol administration; format: in vivo; settings: 2 mg/kg oral together with 10 ml/kg of 40 (v/v) % ethyl alcohol
Text: Male Wistar rats were preliminarily raised for 1 week. Then, the rats of 110 to 120 g in body weight were used. The rats were fasted overnight before the experiment and given neither food nor water during the experiment. The rats were divided into an alcohol single administration group (control group) and a sphingomyelin administration group. Each group contained 5 individuals. […] After administration, the rats were observed until they recovered from drunken symptoms.

sphingomyelin
Average IgM/10^3 spl with respect to saline-administered control group defined as 100% [1]: 20% | Average IgM/10^3 spl ([1]; spleen cells on the 18th day, saline 138): 27 | IgA content in the culture solution [2]: 3.11 µg/mL | symptoms after administration (Male Wistar rats): only staggering gait | time to recover from drunken symptoms (Male Wistar rats; control 5 hours): ≤ 1 h
